Where two headings read alike, the source gives them in different places. Values belong to the molecule of their own block, whether it stands above or below them.
Columns and labels:
[1] = cutaneous [^3H]-4-hydroxy tamoxifen delivery in breast cancer patients: radioactivity in breast tissue, blood, urine; conditions: for share of radioactivity in blood: 24 hours after cutaneous 4-hydroxy tamoxifen
Procedure: (§1) The patients received [^3H]-labeled drug applied directly on the affected breasts at specified intervals ranging from 12 hours to 7 days before surgery to excise diseased tissue. Breast tissue from three regions: the tumor, tissue immediately surrounding the tumor, and normal tissue, was excised and immediately frozen in liquid nitrogen. Additionally, plasma and urine samples were obtained at scheduled intervals and frozen until analysis.

[2] = topical application
[3] = cited from earlier work
estrone sulphatase = target: T1, estrone sulphatase (Homo sapiens, UniProt P08842); conditions: mammary cancer cell lines; cited from earlier work
T1 construct: estrone sulphatase activity in mammary cancer cell lines; endogenous in cells
T1 sequence (P08842 22-583): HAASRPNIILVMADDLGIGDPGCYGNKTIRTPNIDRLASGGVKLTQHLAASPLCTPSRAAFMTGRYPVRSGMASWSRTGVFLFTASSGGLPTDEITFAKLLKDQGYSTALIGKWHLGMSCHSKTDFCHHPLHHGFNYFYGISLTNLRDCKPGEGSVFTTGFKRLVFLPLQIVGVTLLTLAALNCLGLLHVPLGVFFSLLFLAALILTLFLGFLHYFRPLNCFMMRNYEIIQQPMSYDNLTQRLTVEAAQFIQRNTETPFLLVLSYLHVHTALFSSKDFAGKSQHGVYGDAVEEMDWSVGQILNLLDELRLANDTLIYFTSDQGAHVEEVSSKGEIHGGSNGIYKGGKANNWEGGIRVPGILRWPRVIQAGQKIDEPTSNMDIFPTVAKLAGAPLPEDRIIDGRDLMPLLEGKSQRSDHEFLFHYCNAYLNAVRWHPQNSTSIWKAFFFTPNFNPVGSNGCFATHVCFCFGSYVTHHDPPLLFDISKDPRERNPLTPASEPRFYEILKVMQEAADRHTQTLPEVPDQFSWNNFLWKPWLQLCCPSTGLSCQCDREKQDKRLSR

[4] = human, in vivo
Procedure: as §1

[5] = human, in vivo; cited from earlier work
[6] = pharmacokinetics of topically applied 4-hydroxy tamoxifen gel in healthy premenopausal women; assay type: in vivo, human; conditions: last administration, day 25 of second cycle; for t1/2: range
Procedure: Each participant applied the gel daily for the duration of two menstrual cycles.
At the end of a menstrual cycle, each patient received a single dose, after which serial blood samples were collected at 0, 0.5, 1, 1.5, 2, 3, 4, 6, 12, 18, 24, 36, 48, and 72 hours.
On the first day of the following menstruation, treatment, which consisted of daily application of the gel over two menstrual cycles, began. Blood samples were collected 24 hours following the morning application of gel on days 7, 20 and 25 of the first and second cycles. On the last day of administration, day 25 of the second menstrual cycle, serial blood samples were collected prior to application and at 0.5, 1, 1.5, 2, 3, 4, 6, 12, 18, 24, 36, 48, and 72 hours after application of the gel.

keloid fibroblast = conditions: in vitro, cited from earlier work
[7] = tested on: p53(−) normal human mammary epithelial cells; conditions: cited from earlier work
[8] = Group 2 (0.5 mg/day gel) on the seventh day; Group 1 (oral tamoxifen 20 mg/day) on the fifth day; cited from earlier work
TGF-β1 = conditions: cited from earlier work
[9] = 12 hr after cutaneous Z-[^3H]-4-hydroxy tamoxifen to the affected breast
[10] = 24 hr after cutaneous Z-[^3H]-4-hydroxy tamoxifen to the affected breast
[11] = 36 hr after cutaneous Z-[^3H]-4-hydroxy tamoxifen to the affected breast
[12] = Day 4 after cutaneous Z-[^3H]-4-hydroxy tamoxifen to the affected breast
[13] = Day 7 after cutaneous Z-[^3H]-4-hydroxy tamoxifen to the affected breast

percentage of isomer in breast tissue radioactivity [4]: 32%
SMILES: CC/C(=C(\c1ccc(O)cc1)c1ccc(OCCN(C)C)cc1)c1ccccc1 [Z-4-hydroxy tamoxifen]

time of plateau of radioactivity in blood ([1]; cutaneous [^3H]-labeled drug): 2 days
retention in the breast ([1]; cutaneous [^3H]-labeled drug, 80 μCi): shorter and far weaker
SMILES: CC/C(=C(\c1ccccc1)c1ccc(OCCN(C)C)cc1)c1ccccc1 [tamoxifen]
rat liver carcinogenicity [3]: potent rat liver carcinogen
collagen production (keloid fibroblast; keloid fibroblasts): decreases collagen production
keloid fibroblast proliferation (keloid fibroblast): inhibits keloid fibroblast proliferation
inhibitory effect on estrone sulphatase activity (estrone sulphatase): little or no effect
initiation of apoptosis [7]: initiates apoptosis
side effects reported by one person of the group [8]: hot flashes and mild vaginitis
TGF-β1 expression (TGF-β1): downregulating TGF-β1 expression

Further lines, the molecule ahead of its results:

SMILES: CC/C(=C(/c1ccc(O)cc1)c1ccc(OCCN(C)C)cc1)c1ccccc1 (single isomer, unassigned) [E isomer]
percentage of isomer in breast tissue radioactivity ([1]; day 7 after cutaneous Z-[^3H]-4-hydroxy tamoxifen): 33%

SMILES: CCC(=C(c1ccc(O)cc1)c1ccc(OCCN(C)C)cc1)c1ccccc1 [4-hydroxy tamoxifen, 1-[4-(2-N-dimethylaminoethoxy)phenyl]-1-(4-hydroxyphenyl)-2-phenylbut-1-ene]
systemic effects [2]: no detectable laboratory or clinical evidence of systemic effects
rat liver carcinogenicity ([3]; in vivo): not
inhibitory effect on estrone sulphatase activity (estrone sulphatase): significant inhibitory effect
metabolism in intracellular sites of breast tissue [4]: remained unmetabolized except for limited isomerization from the Z to the E form
metabolites in the urine [4]: progressive increase of metabolites, mostly N-desmethyl-4-hydroxy tamoxifen and bisphenol
radioactivity administered that showed in the blood [4]: 0.5%
share of radioactivity in blood [4]: 68%
subcellular distribution in breast tissue [4]: concentrated predominantly in the cytosolic and nuclear fractions of breast tissue
time of plateau of radioactivity in blood [4]: 4 to 6 days
radioactivity in excised tissue and normal breast tissue surrounding the tumor [5]: contained radioactivity
AUC0-24 ([6]; 0.5 mg/day, 20 mg/100 g gel): 0.2563 ± 0.2053 ng·h/mL
Cav = AUC0-24/24 ([6]; 0.5 mg/day, 20 mg/100 g gel): 0.0107 ± 0.0085 ng/mL
Cmax ([6]; 0.5 mg/day, 20 mg/100 g gel): 0.017 ± 0.0085 ng/mL
tmax ([6]; 0.5 mg/day, 20 mg/100 g gel): 40 ± 81 h
AUC0-24 ([6]; 1 mg/day, 20 mg/100 g gel): 0.3009 ± 0.1908 ng·h/mL
Cav = AUC0-24/24 ([6]; 1 mg/day, 20 mg/100 g gel): 0.0125 ± 0.0079 ng/mL
Cmax ([6]; 1 mg/day, 20 mg/100 g gel): 0.021 ± 0.014 ng/mL
tmax ([6]; 1 mg/day, 20 mg/100 g gel): 24 ± 18 h
AUC0-24 ([6]; 1 mg/day, 57 mg/100 g gel): 0.619 ± 0.466 ng·h/mL
Cav = AUC0-24/24 ([6]; 1 mg/day, 57 mg/100 g gel): 0.0258 ± 0.0194 ng/mL
Cmax ([6]; 1 mg/day, 57 mg/100 g gel): 0.0351 ± 0.0224 ng/mL
tmax ([6]; 1 mg/day, 57 mg/100 g gel): 12.8 ± 14.9 h
t1/2 ([6]; 1 mg/day, 57 mg/100 g gel): (58-118) hr
AUC0-24 ([6]; 2 mg/day, 57 mg/100 g gel): 0.998 ± 0.653 ng·h/mL
Cav = AUC0-24/24 ([6]; 2 mg/day, 57 mg/100 g gel): 0.0416 ± 0.0272 ng/mL
Cmax ([6]; 2 mg/day, 57 mg/100 g gel): 0.0516 ± 0.0317 ng/mL
tmax ([6]; 2 mg/day, 57 mg/100 g gel): 11.8 ± 12.3 h
t1/2 ([6]; 2 mg/day, 57 mg/100 g gel): (49-101) hr

SMILES: CC(C)(c1ccc(O)cc1)c1ccc(O)cc1 [Bisphenol]
% Metabolites in Breast Tissue [1, 9]: 1%
share of radioactivity in blood [1]: 11%
% Metabolites in Breast Tissue [1, 10]: 2%
% Metabolites in Breast Tissue [1, 11]: 3%
% Metabolites in Breast Tissue [1, 12]: 8%
% Metabolites in Breast Tissue [1, 13]: 8%

SMILES: CC/C(=C(\c1ccc(O)cc1)c1ccc(OCCNC)cc1)c1ccccc1 [N-Desmethyl-4-Hydroxy Tamoxifen]
% Metabolites in Breast Tissue [1, 9]: 2%
share of radioactivity in blood [1]: 18%
% Metabolites in Breast Tissue [1, 10]: 4%
% Metabolites in Breast Tissue [1, 11]: 14%
% Metabolites in Breast Tissue [1, 12]: 20%
% Metabolites in Breast Tissue [1, 13]: 16%
